# Key:
# [1] = molecular target: T1, α2-adrenergic receptor (Rattus norvegicus, UniProt P22909); conditions: versus nicergoline
# T1 sequence (P22909 1-465): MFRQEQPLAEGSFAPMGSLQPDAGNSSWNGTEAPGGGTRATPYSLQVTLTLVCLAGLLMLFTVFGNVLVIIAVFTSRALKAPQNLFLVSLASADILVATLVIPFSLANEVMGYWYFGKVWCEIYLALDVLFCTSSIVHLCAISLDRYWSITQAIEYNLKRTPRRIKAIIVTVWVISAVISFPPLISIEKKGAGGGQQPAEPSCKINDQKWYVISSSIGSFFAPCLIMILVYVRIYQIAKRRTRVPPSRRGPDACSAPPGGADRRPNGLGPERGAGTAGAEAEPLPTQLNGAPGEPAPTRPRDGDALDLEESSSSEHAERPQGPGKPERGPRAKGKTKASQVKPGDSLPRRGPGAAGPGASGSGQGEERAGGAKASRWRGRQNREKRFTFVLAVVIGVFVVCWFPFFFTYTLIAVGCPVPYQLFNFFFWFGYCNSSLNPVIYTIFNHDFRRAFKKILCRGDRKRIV
# Procedure: (§3) For the determination of the non-specific binding, 10 μmoles of phentolamine were used. Investigation of the α2 -adrenergic receptor binding
# (§4) Hannover Wistar rats were decapitated, their cortexes were prepared and homogenized in a 30-fold volume of a buffer solution (50 μmoles of TRIS HCl, at pH 7.4). The membrane was centrifuged at 45000 g twice for 15 minutes and then suspended in the buffer in a concentration of 50 ml/g (in a protein concentration of 0.9 to 1.0 mg/ml).
# (§5) For investigating the α2 -receptor binding, a membrane preparation, a ligand (1.0 nmole of ^3 H Rx 781094=^3 H-1 dazoxane) and the compound to be tested were used in a total volume of 1 ml. After an incubation at 23° C. for 20 minutes, the samples were filtered through a Whatman GF/B filter and washed 4 times with 4 ml of buffer solution each.
# (§6) For the determination of the non-specific binding, 10 μmoles of phentolamine were used.
# [2] = Antihypoxic effect: survival time under hypobaric hypoxic conditions (170 mmHg); assay type: in vivo, rats (male SHR); conditions: for Antihypoxic effect, survival time as % of the control: rats, 60 min before, control 3.3 ± 0.19 min
# Procedure: (§1) The studies were carried out on male SHR rats weighing 160 to 180 g as well as on CFLP mice of both sexes weighing 18 to 21 g. The compounds to be tested were orally administered in a volume of 5 ml/kg of body-weight (in the case of rats) or in a volume of 10 ml/kg of body-weight (in case of mice) at the 60th minute before beginning the experiment.
# (§2) The results are expressed as percentages.
# Investigation of the antihypoxic effect
# [I. Baumel et al.: Proc. Soc. Exp. Ther. Biol. N.Y. 132, 629 (1969]
# Rats (n=5) were treated with various doses of the compounds to be tested and after 60 minutes the survival time was measured under hypobaric hypoxic conditions (170 mmHg). In the Table, the survival time is expressed as the percentage of that of the control group.
# [3] = Antagonism of the acquisition-inhibitory effect of hypoxia (shuttle box, normobaric hypoxia, 6% O2); assay type: in vivo, rats (male SHR); conditions: for Antagonism of the acquisition-inhibitory effect of hypoxia, CAR Δ %: rats, third day, 6% O2
# Procedure: as §1, §2
# Antagonism of the acquisition-inhibitory effect of hypoxia
# Rats (n=4) were daily treated with various doses of the compounds to be tested, then conditioned in an automatic six-channel shuttle box (VKI) for 3 days [with the following parameters: 50 cycles/day, 15 seconds intersignal period, 15 seconds light stimulus, 10 seconds light and electric footshock (0.8 mA)] under normobaric hypoxic conditions (6% O2). The values of the conditioned avoidance responses on the third day were expressed as the percentage of the deviation from the control value (CAR Δ%).
# [4] = tested on: 45Ca2+ uptake into synaptosomes; test: 45Ca2+ uptake into synaptosomes; assay type: biochemical; conditions: rat brain cortex synaptosomes, K+ (45 mmoles) induced, 37° C., pre-incubation 20 min; read-out: IC50 45Ca2+ (synaptosomal uptake)
# Procedure: Investigation of the ^45 Ca^2+ uptake into synaptosomes
# The synaptosomal fraction was prepared from rat brain cortex according to the method of Wu et al. [J. Neurochem. 39, 700 (1982)], with a protein content of 20 mg/ml.
# For the experiment, a buffer solution (112 mmoles of NaCl, 5 mmoles of KCl, 1.3 mmoles of MgCl2, 1.2 mmoles of NaH2 PO4, 1.2 mmoles of CaCl2, 10 mmoles of glucose and 20 mmoles of TRIS adjusted to pH 7 by carbogen at 37° C.) was used. The mixture containing the buffer solution, the compound to be tested and 1 mg of synaptosomes in a total volume of 1 ml was pre-incubated at 37° C. for 20 minutes and then, the K^+ (45 mmoles) induced ^45 Ca^2+ […] and, for control, the Na^+ (45 mmoles) induced ^45 Ca^2+ uptake were measured. The reaction was stopped by adding 5 ml of a buffer solution (120 mmoles of NaCl, 5 mmoles of KCl, 5 mmoles of EGTA and 20 mmoles of TRIS, at pH 7.4). […] The radioactivity remaining on the filter was determined in 10 ml of scintillation solution.
# [5] = molecular target: T1, α2-adrenergic receptor; test: biochemical
# Procedure: as §3, §4, §5, §6
# [6] = molecular target: T2, D-2 receptor (Rattus norvegicus, UniProt P61169); test: D-2 receptor binding (3H-spiroperidol); parameters: species or system Hannover Wistar rats; conditions: for IC50: rat striatum, 0.5 nmole 3H-spiroperidol, 37° C., 15 min, pH 7.4
# T2 construct: the striatum from their cortex was prepared; from tissue; host or cells: striatum membranes of Hannover Wistar rats
# Procedure: Investigation of the D-2 receptor binding
# Hannover Wistar rats were decapitated and the striatum from their cortex was prepared. The striata were homogenized in a 10-fold volume of a cold buffer solution (50 mmoles of TRIS HCl, 120 mmoles of NaCl, 2 mmoles of KCl, 1 mmole of MgCl2 and 5 mmoles of CaCl2 at pH 7.4) and centrifuged at 45000 g for 15 minutes.
# For investigating the D-2 receptor binding, a membrane preparation, a buffer, a ligand (0.5 nmole of ^3 H-spiroperidol) and the compound to be tested in a defined concentration were used in a total volume of 2 ml.
# [7] = Learning-facilitating effect: one-trial passive avoidance; assay type: in vivo, mice (CFLP); conditions: for Facilitation of learning, avoidance latency period as % of the control: 5.0 mg/kg p.o., mice, retest after one week, control latency 164.0 ± 34.4 sec (nicergoline), 77.0 ± 16.4 sec (2-chloronicergoline)
# Procedure: as §1, §2
# Investigation of the learning-facilitating effect
# [W. B. Essmann and H. Alpern: Psychol. Rep. 41, 731 (1964)]
# Mice (n=10) were treated with 5 mg/kg doses of the compounds to be tested, then the animals were conditioned by the one-trial passive avoidance method. The animals were placed on the platform of the test box, whereupon after entering into the dark box, they received an electric footshock (1.5 mA, 0.3 sec). One week later, the animals were retested: the mean of the latency period of the entering (avoidance) was compared to the control value and expressed as the percentage thereof.
# [8] = molecular target: α1-adrenergic receptor; test: α1-adrenergic receptor binding (3H-prazosine); parameters: species or system Hannover Wistar rats; conditions: for IC50 value of α-adrenergic receptor activity (in words) / α-adrenergic receptor activity compared between 2-chloronicergoline and nicergoline (in words): Table 2 discussion; for IC50: rat cortex membrane, 0.5 nmole 3H-prazosine, 23° C., 30 min, pH 8
# [9] = tested on: α-adrenergic receptor; conditions: Bernardi et al. 1975; cited from earlier work
# [10] = literature; cited from earlier work
# T2 sequence (P61169 whole entry): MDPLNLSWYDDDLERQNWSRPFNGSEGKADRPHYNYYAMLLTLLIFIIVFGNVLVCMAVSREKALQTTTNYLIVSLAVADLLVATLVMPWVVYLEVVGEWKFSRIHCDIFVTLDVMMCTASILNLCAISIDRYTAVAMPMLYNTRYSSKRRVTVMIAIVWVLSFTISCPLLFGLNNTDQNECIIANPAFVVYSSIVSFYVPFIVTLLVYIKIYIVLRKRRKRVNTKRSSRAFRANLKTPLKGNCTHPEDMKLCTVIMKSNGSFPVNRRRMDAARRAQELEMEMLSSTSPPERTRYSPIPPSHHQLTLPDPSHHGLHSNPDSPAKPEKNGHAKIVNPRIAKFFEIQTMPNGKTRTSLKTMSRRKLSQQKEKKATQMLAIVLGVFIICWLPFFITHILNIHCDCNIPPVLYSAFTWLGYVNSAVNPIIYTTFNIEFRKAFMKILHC
Compound,"α2-adrenoceptor activity, times as high as that of nicergoline [1]",hypoxic tolerance (in words) ([2]; 1.0 mg/kg),"Antihypoxic effect, survival time as % of the control ([2]; 1.0 mg/kg p.o.) [%]","Antihypoxic effect, survival time as % of the control ([2]; 2.5 mg/kg p.o.) [%]","Antagonism of the acquisition-inhibitory effect of hypoxia, CAR Δ % ([3]; 2.5 mg/kg p.o.) [%]","dose normalizing deteriorated performance under normobaric hypoxia, times lower than that of nicergoline ([3]; versus nicergoline) [times]",IC50 [4] [nM],IC50 [5] [nM],IC50 [6] [nM],Selectivity ratio D-2/α1 ([6]; ratio of IC50 values) [nmole/nmole],"D-2 receptor activity, times lower than that of nicergoline ([6]; versus nicergoline) [times]","Facilitation of learning, avoidance latency period as % of the control [7] [%]","learning-facilitating effect compared with nicergoline (in words) ([7]; same doses, versus nicergoline)",IC50 value of α-adrenergic receptor activity (in words) [8],α-adrenergic receptor activity compared between 2-chloronicergoline and nicergoline (in words) [8],IC50 [8] [nM],α-adrenoceptor selectivity (in words) ([8]; shown by D-2/α1 selectivity ratio),α-adrenerg blocking effect (in words) [9],vasodilatory effect (in words) [10],"Antagonism of the acquisition-inhibitory effect of hypoxia, CAR Δ % ([3]; 10.0 mg/kg p.o.) [%]"
"CO[C@]12C[C@@H](COC(=O)c3cncc(Br)c3)CN(C)[C@@H]1Cc1c(Cl)n(C)c3cccc2c13 [2-Chloronicergoline, 2-chloronicergoline]",about 13 times,significantly increased,155,276,150,4,7000,24.2,877,92.3,12,182,significantly better than that of nicergoline,low,practically identical,9.5,pronounced,,,
CO[C@]12C[C@@H](COC(=O)c3cncc(Br)c3)CN(C)[C@@H]1Cc1c(Br)n(C)c3cccc2c13 [2-bromonicergoline],,,,,,,,,,,,,,,,,,α-adrenerg blocking effect,vasodilatory,
"CO[C@]12C[C@@H](COC(=O)c3cncc(Br)c3)CN(C)[C@@H]1Cc1cn(C)c3cccc2c13 [Nicergoline, 1,6-dimethyl-10α-methoxyergoline-8β-methanol 5-bromonicotinate]",,,103,109,,,26700,176,71.4,,,131,,low,practically identical,5.3,,,peripheral vasodilatory agent,150

# Source: patent US4753949A, “2-chloronicergoline having antihypoxic activity” (Richter Gedeon Vegyeszeti Gyar Rt., priority 1985, dated 1988)
